“And” between values parts separate entries of the source, which are not always exact repeats. Equal entries are not always repeated. Where two headings read alike, the source gives them in different places.
Experiments:
male NMRI albino mice [1] = experiment: Maximal electroshock (MES) test; assay type: in vivo
Method: (§1) To assess the anticonvulsant activity of the novel compound 6a, we used PTZ-induced convulsion and MES tests (Guerrini et al., 2008[10]; Lankau et al., 2007[13]). In both models, the ability of the novel compound to protect mice against induced seizures was evaluated. Animals were closely observed for 30 minutes after injection of the lethal dose of PTZ (100 mg/kg) and the number of dead mice after convulsion was reported. In the MES test, each subject was observed closely and the incidence of hind limb tonic extension (HLTE) in the subjects after application of MES (60 Hz, 37.2 mA, and 0.25 s) was reported.
(§2) Kd and Bmax in radioligand binding assay were calculated by non-linear regression analysis of the saturation and competitive curve data (Program Prism, Graph Pad, San Diego, CA). The IC50s of the novel compounds in binding studies were determined using […]. […] In PTZ and MES tests, the data were presented as a mean with 95% confidence intervals. In the rest of the pharmacological evaluations, one-way ANOVA with Tukey's HSD post-hoc test was used. All the data were presented as mean ± SEM and P<0.05 was considered statistically significant.

male NMRI albino mice [2] = experiment: Pentobarbital-induced sleep test; assay type: in vivo; conditions: for Sleeping time: pentobarbital 40 mg/kg i.p., raw data of single animals
Source text: The duration of the loss of the righting reflex was considered as the sleeping time. […] For prevention of hypothermia during the experiment, animals were placed on an electric blanket (Khoramjouy et al., 2021[11]).

male NMRI albino mice [3] = experiment: Elevated plus-maze test; assay type: in vivo; conditions: for % duration in close arms / % duration in open arms: raw data of single animals
Method: The elevated plus-maze device was made up of Plexiglas, and it contained two open arms (30×5×0.5 cm) and two closed arms (30×5×35 cm) with an open roof. They were arranged so that the open arms were opposite to […]. The entire maze was elevated at a height of 1 meter. The mice were individually placed in the central square of the maze (5×5 cm) where all four arms were connected together after 30 minutes of intraperitoneal (i.p) administration of the test compounds. The time spent in the open and closed arms was recorded.

male NMRI albino mice [4] = experiment: PTZ-induced lethal convulsion test; assay type: in vivo
Method: as §1, §2

[5] = target: benzodiazepine receptor of rat brains; experiment: Radioligand receptor binding assay ([3H]-flumazenil competitive binding); conditions: for Ki: [3H]-flumazenil competitive binding; for Specific binding of [3H]flumazenil: mean ± SEM, n=3; for IC50: reduction of specific binding of [3H]-flumazenil by 50 %, triplicates, 30 °C, 35 min
Method: All of the binding assays were performed in triplicates in a total volume of 500 µL at 30 °C for 35 min (Ahmadi et al., 2013[1]).
as §2

male NMRI albino mice [6] = conditions: for latency of entrance to the dark compartment: testing day, raw data of single animals
Method: For the mice to get adapted to the lab environment, we transferred them to the lab 60 minutes before the tests started. Mice were randomly selected for all the experimental groups and each subject was tested only once for the pharmacological evaluations.
Distilled water was used as a solvent (vehicle) of PTZ and pentobarbital. Both, PTZ and pentobarbital were injected i.p. 5 ml/kg.
The passive avoidance cage (Malek Teb Co., Tehran) consists of two different compartments separated by a guillotine door. One of the compartments was black and dark while the other one was white and lighted. For the training trial, each mouse was placed in the white and light compartment and facing away from the guillotine door for 30 seconds. Next, the guillotine door was opened and the mouse was able to freely enter the black and dark compartment. When the mouse entered the black and dark compartment with four paws, it received an electric unpleasant stimulus (0.5 mA, 2 seconds) through the grid floor. On the testing day (after 24 hours), we placed the mouse in the lighted compartment and there was no electrical stimulus. We reported the latency to enter the black and dark compartment while the guillotine door was open.

[7] = doses of 5 and 10 mg/kg, over 10 minutes

## O=C(Nc1ccccc1)c1nnc(-c2ccc(Cl)cc2Oc2ccccc2)o1 [6a, 5-(4-chloro-2-phenoxyphenyl)-N-phenyl-1,3,4-oxadiazole-2-carboxamide]
Male NMRI albino mice [1]; MES test, flumazenil 10 mg/kg
  anticonvulsant activity in presence of flumazenil: can antagonize the anticonvulsant activity
Male NMRI albino mice [1]; Mus musculus, ip, i.p. 30 min before MES (60 Hz, 37.2 mA, 0.25 s), HLTE, mean with 95% confidence intervals
  ED50: 27.8 mg/kg
Male NMRI albino mice [2]; 1.25 mg/kg i.p.
  Sleeping time: 26 min and 38 min and 39 min and 46 min and 28 min and 20 min and 24 min and 32 min
Male NMRI albino mice [2]; 5 mg/kg i.p.
  Sleeping time: 48 minute and 44 minute and 50 minute (2×) and 43 minute and 57 minute and 40 minute and 56 minute
Male NMRI albino mice [2]; 10 mg/kg + Flumazenil (10 mg/kg)
  Sleeping time: 43 minute (2×) and 34 minute (2×) and 27 minute (2×) and 32 minute and 29 minute
Male NMRI albino mice [2]; 10 mg/kg i.p.
  Sleeping time: 53 minute and 64 minute and 47 minute (2×) and 43 minute and 40 minute and 55 minute and 49 minute
Male NMRI albino mice [2]; dose of 10 and 5 mg/kg, P<0.001
  effect on sleeping time: increased the sleeping time
Male NMRI albino mice [2]; with flumazenil 10 mg/kg, P<0.001
  hypnotic effect in presence of flumazenil: prevented by flumazenil
Male NMRI albino mice [3]; 1.25 mg/kg i.p.
  % duration in close arms: 65.00% (2×) and 67.00% and 56.00% and 60.00% and 53.00% and 64.00% and 59.00%
  % duration in open arms: 35.00% (2×) and 33.00% and 44.00% and 40.00% and 47.00% and 36.21% and 41.00%
Male NMRI albino mice [3]; 5 mg/kg i.p.
  % duration in close arms: 48.50% (2×) and 44.54% and 44.40% and 43.48% and 38.16% and 47.65% and 51.65%
  % duration in open arms: 51.49% (2×) and 55.45% and 55.59% and 56.51% and 61.83% and 52.34% and 48.34%
Male NMRI albino mice [3]; 10 mg/kg i.p.
  % duration in close arms: 42.44% and 46.28% and 47.65% and 43.17% and 37.57% and 45.37% and 41.04% and 26.78%
  % duration in open arms: 57.55% and 53.71% and 52.34% and 56.82% and 62.42% and 54.62% and 58.96% and 73.22%
Male NMRI albino mice [3]; [7]
  effect on close arm time (CAT): decrease the close arm time
  effect on open arm time (OAT): increase the open arm time
Male NMRI albino mice [4]; Mus musculus, i.p. 30 min before PTZ 100 mg/kg, mean with 95% confidence intervals
  ED50: 72 mg/kg
Male NMRI albino mice [4]; PTZ test, flumazenil 10 mg/kg
  anticonvulsant activity in presence of flumazenil: can antagonize the anticonvulsant activity
[5]
  Ki: 0.44 nM
  IC50: 0.73 ± 0.17 nM
[5]; log[L] -7.0
  Specific binding of [3H]flumazenil: 0.3167±0.0378 cpm
[5]; log[L] -8.0
  Specific binding of [3H]flumazenil: 0.4000±0.0412 cpm
[5]; log[L] -8.5
  Specific binding of [3H]flumazenil: 0.4200±0.0102 cpm
[5]; log[L] -9.0
  Specific binding of [3H]flumazenil: 0.4667±0.0090 cpm
[5]; log[L] -9.5
  Specific binding of [3H]flumazenil: 0.5100±0.0156 cpm
[5]; log[L] -10.0
  Specific binding of [3H]flumazenil: 0.5800±0.0156 cpm
[5]; log[L] -11.0
  Specific binding of [3H]flumazenil: 0.6267±0.0034 cpm
Male NMRI albino mice [6]; 1.25 mg/kg i.p.
  latency of entrance to the dark compartment: 320 second and 380 second and 393 second and 467 second and 480 second (2×) and 420 second (2×)
Male NMRI albino mice [6]; 5 mg/kg i.p.
  latency of entrance to the dark compartment: 480 second (2×) and 440 second and 344 second and 343 second and 380 second and 407 second and 251 second
Male NMRI albino mice [6]; 10 mg/kg i.p.
  latency of entrance to the dark compartment: 320 s and 460 s and 407 s and 230 s and 400 s and 420 s and 480 s and 326 s
Male NMRI albino mice [6]; doses of 1.25, 2.5, 5, and 10 mg/kg
  effect on latency to enter the dark compartment: did not show any significant effect

## O=C(Nc1ccccn1)c1nnc(-c2ccc(Cl)cc2Oc2ccccc2)o1 [6b, 5-(4-chloro-2-phenoxyphenyl)-N-(pyridin-2-yl)-1,3,4-oxadiazole-2-carboxamide]
[5]
  Ki: 2.35 nM
  IC50: 3.84 ± 0.1 nM
[5]; log[L] -7.0
  Specific binding of [3H]flumazenil: 0.2333±0.0148 cpm
[5]; log[L] -8.0
  Specific binding of [3H]flumazenil: 0.3733±0.0223 cpm
[5]; log[L] -8.5
  Specific binding of [3H]flumazenil: 0.4267±0.0090 cpm
[5]; log[L] -9.0
  Specific binding of [3H]flumazenil: 0.5233±0.0180 cpm
[5]; log[L] -9.5
  Specific binding of [3H]flumazenil: 0.5467±0.0068 cpm
[5]; log[L] -10.0
  Specific binding of [3H]flumazenil: 0.5900±0.0118 cpm
[5]; log[L] -11.0
  Specific binding of [3H]flumazenil: 0.6433±0.0122 cpm
other
  melting point: 198 to 200 °C

## Cc1cccc(NC(=O)c2nnc(-c3ccc(Cl)cc3Oc3ccccc3)o2)n1 [6c, 5-(4-chloro-2-phenoxyphenyl)-N-(6-methylpyridin-2-yl)-1,3,4-oxadiazole-2-carboxamide]
[5]
  Ki: 0.76 nM
  IC50: 1.25 ± 0.09 nM
[5]; log[L] -7.0
  Specific binding of [3H]flumazenil: 0.3000±0.0059 cpm
[5]; log[L] -8.0
  Specific binding of [3H]flumazenil: 0.3100±0.0102 cpm
[5]; log[L] -8.5
  Specific binding of [3H]flumazenil: 0.3767±0.0090 cpm
[5]; log[L] -9.0
  Specific binding of [3H]flumazenil: 0.4467±0.0207 cpm
[5]; log[L] -9.5
  Specific binding of [3H]flumazenil: 0.5367±0.0122 cpm
[5]; log[L] -10.0
  Specific binding of [3H]flumazenil: 0.5700±0.0156 cpm
[5]; log[L] -11.0
  Specific binding of [3H]flumazenil: 0.5733±0.0207 cpm
other
  melting point: 183.2 to 184.3 °C

## Cc1ccnc(NC(=O)c2nnc(-c3ccc(Cl)cc3Oc3ccccc3)o2)c1 [6d, 5-(4-chloro-2-phenoxyphenyl)-N-(4-methylpyridin-2-yl)-1,3,4-oxadiazole-2-carboxamide]
[5]
  Ki: 0.88 nM
  IC50: 1.44 ± 0.09 nM
[5]; log[L] -7.0
  Specific binding of [3H]flumazenil: 0.3000±0.0059 cpm
[5]; log[L] -8.0
  Specific binding of [3H]flumazenil: 0.3100±0.0102 cpm
[5]; log[L] -8.5
  Specific binding of [3H]flumazenil: 0.3767±0.0090 cpm
[5]; log[L] -9.0
  Specific binding of [3H]flumazenil: 0.4467±0.0207 cpm
[5]; log[L] -9.5
  Specific binding of [3H]flumazenil: 0.5367±0.0122 cpm
[5]; log[L] -10.0
  Specific binding of [3H]flumazenil: 0.5700±0.0156 cpm
[5]; log[L] -11.0
  Specific binding of [3H]flumazenil: 0.5733±0.0207 cpm
other
  melting point: 188.2 to 189.1 °C

## O=C(NN1CCOCC1)c1nnc(-c2ccc(Cl)cc2Oc2ccccc2)o1 [6e, 5-(4-chloro-2-phenoxyphenyl)-N-morpholino-1,3,4-oxadiazole-2-carboxamide]
[5]
  Ki: 0.95 nM
  IC50: 1.55 ± 0.1 nM
[5]; log[L] -7.0
  Specific binding of [3H]flumazenil: 0.2900±0.0059 cpm
[5]; log[L] -8.0
  Specific binding of [3H]flumazenil: 0.3067±0.0090 cpm
[5]; log[L] -8.5
  Specific binding of [3H]flumazenil: 0.3600±0.0060 cpm
[5]; log[L] -9.0
  Specific binding of [3H]flumazenil: 0.5867±0.0090 cpm
[5]; log[L] -9.5
  Specific binding of [3H]flumazenil: 0.6033±0.0189 cpm
[5]; log[L] -10.0
  Specific binding of [3H]flumazenil: 0.6667±0.0148 cpm
[5]; log[L] -11.0
  Specific binding of [3H]flumazenil: 0.6967±0.0148 cpm
other
  melting point: 159 to 161 °C

## O=C(NC1CCCCC1)c1nnc(-c2ccc(Cl)cc2Oc2ccccc2)o1 [6f, 5-(4-chloro-2-phenoxyphenyl)-N-cyclohexyl-1,3,4-oxadiazole-2-carboxamide]
[5]
  Ki: 1.53 nM
  IC50: 2.51 ± 0.13 nM
[5]; log[L] -7.0
  Specific binding of [3H]flumazenil: 0.2133±0.0272 cpm
[5]; log[L] -8.0
  Specific binding of [3H]flumazenil: 0.3533±0.0189 cpm
[5]; log[L] -8.5
  Specific binding of [3H]flumazenil: 0.4000±0.0118 cpm
[5]; log[L] -9.0
  Specific binding of [3H]flumazenil: 0.4533±0.0148 cpm
[5]; log[L] -9.5
  Specific binding of [3H]flumazenil: 0.5500±0.0156 cpm
[5]; log[L] -10.0
  Specific binding of [3H]flumazenil: 0.6133±0.0296 cpm
[5]; log[L] -11.0
  Specific binding of [3H]flumazenil: 0.5933±0.0207 cpm
other
  melting point: 132 to 133 °C

Source: PMC10043390, “Novel 2-substituted-5-(4-chloro-2-phenoxy)phenyl-1,3,4-oxadiazole derivatives, ligands of GABAA/benzodiazepine receptor complex: Design, synthesis, radioligand binding assay, and pharmacological evaluation” (EXCLI Journal, 2023)
